Results from patent US20190269129A1, “COMPOSITION CONTAINING 1,2-DIBROMO-2,4-DICYANOBUTANE (DBDCB) AND ZINC PYRITHIONE (ZPT)” (LANXESS Deutschland GmbH, priority 2014, published 2019).

How the values were obtained:
Type in all cases: cell-based
Conditions in all cases: 0.05 wt % biocide added
[1] = system: Bacteria: Escherichia coli, Pseudomonas aeruginosa and Staphylococcus aureus; assay: Microbiological stress test, preservation of a polymer emulsion: bacteria
From the text: (§1) The preserving effect of an inventive composition comprising DBDCB and ZPT in a polymer emulsion (acrylate-based, pH=6.5) was investigated using a microbiological stress test. The microbiological stress test examines the susceptibility of water-based systems to microbial attack and the effect of preservatives. To this end, the preservatives are incorporated in defined concentrations into the water-based systems. […] Having knowledge of the microorganism populations prevalent in polymer emulsions and dispersions the experiment employed a mixture of the following microorganism types for testing: Bacteria: Escherichia coli, Pseudomonas aeruginosa and Staphylococcus aureus.

[2] = system: Molds: Acremonium strictum, Aspergillus niger and Geotrichum candidu; assay: Microbiological stress test, preservation of a polymer emulsion: molds
From the text: as §1, with “Molds: Acremonium strictum, Aspergillus niger” for “Bacteria: Escherichia coli, Pseudomonas aeruginosa”, “Geotrichum candidu.” for “Staphylococcus aureus.”

[3] = system: Yeasts: Candida albicans and Rhodotorula rubra; assay: Microbiological stress test, preservation of a polymer emulsion: yeasts
From the text: as §1, with “Yeasts: Candida albicans” for “Bacteria: Escherichia coli, Pseudomonas aeruginosa”, “Rhodotorula rubra.” for “Staphylococcus aureus.”

[4] = week 1, polymer emulsion pH 6.5
[5] = week 2, polymer emulsion pH 6.5
[6] = week 3, polymer emulsion pH 6.5
[7] = week 4, polymer emulsion pH 6.5
[8] = week 5, polymer emulsion pH 6.5
[9] = week 6, polymer emulsion pH 6.5

## [O-][n+]1ccccc1[S-].[O-][n+]1ccccc1[S-].[Zn+2] [ZPT, zinc bis[2-pyridinethiolate]-N,N-dioxide]
[1]; [4]
  Activity of the biocides determined 1 week after germ addition, week 1: 0 (no reduction or only a minor reduction of the microbe level is observed (residual level of at least 10^5 bacteria/10^4 mold/yeast cells per g) (score of 0=poor))
[1]; [5]
  Activity of the biocides determined 1 week after germ addition, week 2: 0 (no reduction or only a minor reduction of the microbe level is observed (residual level of at least 10^5 bacteria/10^4 mold/yeast cells per g) (score of 0=poor))
[1]; [6]
  Activity of the biocides determined 1 week after germ addition, week 3: 0 (no reduction or only a minor reduction of the microbe level is observed (residual level of at least 10^5 bacteria/10^4 mold/yeast cells per g) (score of 0=poor))
[1]; [7]
  Activity of the biocides determined 1 week after germ addition, week 4: 0 (no reduction or only a minor reduction of the microbe level is observed (residual level of at least 10^5 bacteria/10^4 mold/yeast cells per g) (score of 0=poor))
[1]; [8]
  Activity of the biocides determined 1 week after germ addition, week 5: 0 (no reduction or only a minor reduction of the microbe level is observed (residual level of at least 10^5 bacteria/10^4 mold/yeast cells per g) (score of 0=poor))
[1]; [9]
  Activity of the biocides determined 1 week after germ addition, week 6: 0 (no reduction or only a minor reduction of the microbe level is observed (residual level of at least 10^5 bacteria/10^4 mold/yeast cells per g) (score of 0=poor))
[2]; [4]
  Activity of the biocides determined 1 week after germ addition, week 1: 2 (markedly reduced microbe level is observed (10^3−10^1 bacteria/10^2−10^1 mold/yeast cells per g) (score of 2=good))
[2]; [5]
  Activity of the biocides determined 1 week after germ addition, week 2: 2 (markedly reduced microbe level is observed (10^3−10^1 bacteria/10^2−10^1 mold/yeast cells per g) (score of 2=good))
[2]; [6]
  Activity of the biocides determined 1 week after germ addition, week 3: 2 (markedly reduced microbe level is observed (10^3−10^1 bacteria/10^2−10^1 mold/yeast cells per g) (score of 2=good))
[2]; [7]
  Activity of the biocides determined 1 week after germ addition, week 4: 2 (markedly reduced microbe level is observed (10^3−10^1 bacteria/10^2−10^1 mold/yeast cells per g) (score of 2=good))
[2]; [8]
  Activity of the biocides determined 1 week after germ addition, week 5: 2 (markedly reduced microbe level is observed (10^3−10^1 bacteria/10^2−10^1 mold/yeast cells per g) (score of 2=good))
[2]; [9]
  Activity of the biocides determined 1 week after germ addition, week 6: 2 (markedly reduced microbe level is observed (10^3−10^1 bacteria/10^2−10^1 mold/yeast cells per g) (score of 2=good))
[3]; [4]
  Activity of the biocides determined 1 week after germ addition, week 1: 2 (markedly reduced microbe level is observed (10^3−10^1 bacteria/10^2−10^1 mold/yeast cells per g) (score of 2=good))
[3]; [5]
  Activity of the biocides determined 1 week after germ addition, week 2: 2 (markedly reduced microbe level is observed (10^3−10^1 bacteria/10^2−10^1 mold/yeast cells per g) (score of 2=good))
[3]; [6]
  Activity of the biocides determined 1 week after germ addition, week 3: 2 (markedly reduced microbe level is observed (10^3−10^1 bacteria/10^2−10^1 mold/yeast cells per g) (score of 2=good))
[3]; [7]
  Activity of the biocides determined 1 week after germ addition, week 4: 2 (markedly reduced microbe level is observed (10^3−10^1 bacteria/10^2−10^1 mold/yeast cells per g) (score of 2=good))
[3]; [8]
  Activity of the biocides determined 1 week after germ addition, week 5: 2 (markedly reduced microbe level is observed (10^3−10^1 bacteria/10^2−10^1 mold/yeast cells per g) (score of 2=good))
[3]; [9]
  Activity of the biocides determined 1 week after germ addition, week 6: 2 (markedly reduced microbe level is observed (10^3−10^1 bacteria/10^2−10^1 mold/yeast cells per g) (score of 2=good))
